From patent publication US9920063B2, “Melampomagnolide B derivatives” (Board of Trustees of the University of Arkansas, priority 2013, dated 2018)
Like-named read-outs stand apart in the source and are kept apart here.

Columns and labels:
[1] = tested on: OVCAR-4
[2] = tested on: MOLT-4
[3] = tested on: RXF 393
[4] = tested on: HL-60(TB)
[5] = tested on: T-47D
[6] = tested on: NCI-H226
[7] = tested on: NCI/ADR-RES
[8] = tested on: A549/ATCC
[9] = tested on: MCF7
[10] = tested on: OVCAR-3
[11] = tested on: MDA-MB-468
[12] = tested on: UACC-62
[13] = tested on: HOP-92
[14] = tested on: UACC-257
[15] = tested on: SK-MEL-5
[16] = tested on: SNB-75
[17] = tested on: CCRF-CEM
[18] = tested on: HCC-2998

## C=C1C(=O)O[C@H]2[C@H]1CC/C(COC(=O)c1cc3ccccc3[nH]1)=C\CC[C@@]1(C)O[C@@H]21 [BS-1-28]
[1]
  CC50: 8430 nM
[1]; OVCAR-4, Log10 Concentration −4.0
  Percent Growth: −84%
[1]; OVCAR-4, Log10 Concentration −5.0
  Percent Growth: −58%
[1]; OVCAR-4, Log10 Concentration −6.0
  Percent Growth: 48%
[1]; OVCAR-4, Log10 Concentration −7.0
  Percent Growth: 88%
[1]; OVCAR-4, Log10 Concentration −8.0
  Percent Growth: 4%
[1]; OVCAR-4, NCI five dose
  TGI: 2.85E−6
[2]
  CC50: > 100000 nM
[2]; MOLT-4, Log10 Concentration −4.0
  Percent Growth: −32%
[2]; MOLT-4, Log10 Concentration −5.0
  Percent Growth: −3%
[2]; MOLT-4, Log10 Concentration −6.0
  Percent Growth: 62%
[2]; MOLT-4, Log10 Concentration −7.0
  Percent Growth: 103%
[2]; MOLT-4, Log10 Concentration −8.0
  Percent Growth: 105%
[2]; MOLT-4, NCI five dose
  GI50: 1510 nM
  TGI: 8.89E−6
[3]
  CC50: 6230 nM
[3]; RXF 393, Log10 Concentration −4.0
  Percent Growth: −65%
[3]; RXF 393, Log10 Concentration −5.0
  Percent Growth: −77%
[3]; RXF 393, Log10 Concentration −6.0
  Percent Growth: 54%
[3]; RXF 393, Log10 Concentration −7.0
  Percent Growth: 85%
[3]; RXF 393, Log10 Concentration −8.0
  Percent Growth: 73%
[3]; RXF 393, NCI five dose
  GI50: 1070 nM
  TGI: 2.58E−6
[4]; Log10 Concentration −4.0
  Percent Growth: −57%
[4]; Log10 Concentration −5.0
  Percent Growth: −17%
[4]; Log10 Concentration −6.0
  Percent Growth: 28%
[4]; Log10 Concentration −7.0
  Percent Growth: 112%
[4]; Log10 Concentration −8.0
  Percent Growth: 114%
[4]; NCI five dose
  GI50: 546 nM
  TGI: 4.15E−6
[4]; read-out: LC50, NCI five dose
  CC50: 65800 nM
[5]
  CC50: > 100000 nM
  GI50: < 10 nM
[5]; T-47D, Log10 Concentration −4.0
  Percent Growth: −33%
[5]; T-47D, Log10 Concentration −5.0
  Percent Growth: −43%
[5]; T-47D, Log10 Concentration −6.0
  Percent Growth: 35%
[5]; T-47D, Log10 Concentration −7.0
  Percent Growth: 40%
[5]; T-47D, Log10 Concentration −8.0
  Percent Growth: −2%
[5]; T-47D, NCI five dose
  GI50: < 10 nM
[6]
  CC50: 7010 nM
[6]; NCI-H226, Log10 Concentration −4.0
  Percent Growth: −71%
[6]; NCI-H226, Log10 Concentration −5.0
  Percent Growth: −73%
[6]; NCI-H226, Log10 Concentration −6.0
  Percent Growth: 74%
[6]; NCI-H226, Log10 Concentration −7.0
  Percent Growth: 88%
[6]; NCI-H226, Log10 Concentration −8.0
  Percent Growth: 92%
[6]; NCI-H226, NCI five dose
  GI50: 1470 nM
  TGI: 3.21E−6
[7]
  CC50: > 100000 nM
[7]; NCl/ADR-RES, Log10 Concentration −4.0
  Percent Growth: −43%
[7]; NCl/ADR-RES, Log10 Concentration −5.0
  Percent Growth: −2%
[7]; NCl/ADR-RES, Log10 Concentration −6.0
  Percent Growth: 77%
[7]; NCl/ADR-RES, Log10 Concentration −7.0
  Percent Growth: 100%
[7]; NCl/ADR-RES, Log10 Concentration −8.0
  Percent Growth: 99%
[7]; NCl/ADR-RES, NCI five dose
  GI50: 2200 nM
  TGI: 9.42E−6
[8]
  CC50: 59300 nM
[8]; A549/ATCC, Log10 Concentration −4.0
  Percent Growth: −53%
[8]; A549/ATCC, Log10 Concentration −5.0
  Percent Growth: −41%
[8]; A549/ATCC, Log10 Concentration −6.0
  Percent Growth: 92%
[8]; A549/ATCC, Log10 Concentration −7.0
  Percent Growth: 96%
[8]; A549/ATCC, Log10 Concentration −8.0
  Percent Growth: 91%
[8]; A549/ATCC, NCI five dose
  GI50: 2060 nM
  TGI: 4.90E−6
[9]
  CC50: 6690 nM
[9]; MCF7, Log10 Concentration −4.0
  Percent Growth: −56%
[9]; MCF7, Log10 Concentration −5.0
  Percent Growth: −63%
[9]; MCF7, Log10 Concentration −6.0
  Percent Growth: 11%
[9]; MCF7, Log10 Concentration −7.0
  Percent Growth: 88%
[9]; MCF7, Log10 Concentration −8.0
  Percent Growth: 63%
[9]; MCF7, NCI five dose
  GI50: 302 nM
  TGI: 1.39E−6
[10]
  CC50: 2660 nM
[10]; OVCAR-3, Log10 Concentration −4.0
  Percent Growth: −95%
[10]; OVCAR-3, Log10 Concentration −5.0
  Percent Growth: −92%
[10]; OVCAR-3, Log10 Concentration −6.0
  Percent Growth: −15%
[10]; OVCAR-3, Log10 Concentration −7.0
  Percent Growth: 50%
[10]; OVCAR-3, Log10 Concentration −8.0
  Percent Growth: 19%
[10]; OVCAR-3, NCI five dose
  TGI: 5.92E−7
[11]
  CC50: 5170 nM
[11]; MDA-MB-468, Log10 Concentration −4.0
  Percent Growth: −52%
[11]; MDA-MB-468, Log10 Concentration −5.0
  Percent Growth: −71%
[11]; MDA-MB-468, Log10 Concentration −6.0
  Percent Growth: 3%
[11]; MDA-MB-468, Log10 Concentration −7.0
  Percent Growth: 95%
[11]; MDA-MB-468, Log10 Concentration −8.0
  Percent Growth: 76%
[11]; MDA-MB-468, NCI five dose
  GI50: 307 nM
  TGI: 1.10E−6
[12]
  CC50: 6980 nM
[12]; UACC-62, Log10 Concentration −4.0
  Percent Growth: −15%
[12]; UACC-62, Log10 Concentration −5.0
  Percent Growth: −73%
[12]; UACC-62, Log10 Concentration −6.0
  Percent Growth: 75%
[12]; UACC-62, Log10 Concentration −7.0
  Percent Growth: 91%
[12]; UACC-62, Log10 Concentration −8.0
  Percent Growth: 97%
[12]; UACC-62, NCI five dose
  GI50: 1470 nM
  TGI: 3.21E−6
[13]
  CC50: 4660 nM
[13]; HOP-92, Log10 Concentration −4.0
  Percent Growth: −97%
[13]; HOP-92, Log10 Concentration −5.0
  Percent Growth: −91%
[13]; HOP-92, Log10 Concentration −6.0
  Percent Growth: 40%
[13]; HOP-92, Log10 Concentration −7.0
  Percent Growth: 71%
[13]; HOP-92, Log10 Concentration −8.0
  Percent Growth: 74%
[13]; HOP-92, NCI five dose
  GI50: 480 nM
  TGI: 2.02E−6
[14]
  CC50: 6980 nM
[14]; UACC-257, Log10 Concentration −4.0
  Percent Growth: −78%
[14]; UACC-257, Log10 Concentration −5.0
  Percent Growth: −75%
[14]; UACC-257, Log10 Concentration −6.0
  Percent Growth: 53%
[14]; UACC-257, Log10 Concentration −7.0
  Percent Growth: 93%
[14]; UACC-257, Log10 Concentration −8.0
  Percent Growth: 98%
[14]; UACC-257, NCI five dose
  GI50: 1610 nM
  TGI: 3.36E−6
[15]
  CC50: 5120 nM
[15]; SK-MEL-5, Log10 Concentration −4.0
  Percent Growth: −95%
[15]; SK-MEL-5, Log10 Concentration −5.0
  Percent Growth: −98%
[15]; SK-MEL-5, Log10 Concentration −6.0
  Percent Growth: 67%
[15]; SK-MEL-5, Log10 Concentration −7.0
  Percent Growth: 92%
[15]; SK-MEL-5, Log10 Concentration −8.0
  Percent Growth: 96%
[15]; SK-MEL-5, NCI five dose
  GI50: 1260 nM
  TGI: 2.54E−6
[16]
  CC50: 4720 nM
[16]; SNB-75, Log10 Concentration −4.0
  Percent Growth: −58%
[16]; SNB-75, Log10 Concentration −5.0
  Percent Growth: −98%
[16]; SNB-75, Log10 Concentration −6.0
  Percent Growth: 50%
[16]; SNB-75, Log10 Concentration −7.0
  Percent Growth: 77%
[16]; SNB-75, Log10 Concentration −8.0
  Percent Growth: 72%
[16]; SNB-75, NCI five dose
  GI50: 1010 nM
  TGI: 2.19E−6
[17]
  CC50: > 100000 nM
[17]; CCRF-CEM, Log10 Concentration −4.0
  Percent Growth: −37%
[17]; CCRF-CEM, Log10 Concentration −5.0
  Percent Growth: −15%
[17]; CCRF-CEM, Log10 Concentration −6.0
  Percent Growth: 3%
[17]; CCRF-CEM, Log10 Concentration −7.0
  Percent Growth: 90%
[17]; CCRF-CEM, Log10 Concentration −8.0
  Percent Growth: 99%
[17]; CCRF-CEM, NCI five dose
  GI50: 286 nM
  TGI: 1.45E−6
[17]; leukemia cell line CCRF-CEM
  GI50: 288 nM
[18]
  CC50: 8770 nM
[18]; HCC-2998, Log10 Concentration −4.0
  Percent Growth: −84%
[18]; HCC-2998, Log10 Concentration −5.0
  Percent Growth: −59%
[18]; HCC-2998, Log10 Concentration −6.0
  Percent Growth: 104%
[18]; HCC-2998, Log10 Concentration −7.0
  Percent Growth: 104%
[18]; HCC-2998, Log10 Concentration −8.0
  Percent Growth: 103%
[18]; HCC-2998, NCI five dose
  GI50: 2140 nM
  TGI: 4.33E−6
